Assay results from PubChem BioAssay (NCI).
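Results reflect a 48-hour exposure of cells in 96-well plates to compound at five concentrations. TGI marks complete inhibition of growth.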

Legend:
Test in all cases: growth of human tumour cells (NCI), 48 h
786-0 renal = system: 786-0 renal
A498 renal = system: A498 renal
A549 NSCLC = system: A549 NSCLC
ACHN renal = system: ACHN renal
CAKI-1 renal = system: CAKI-1 renal
CCRF-CEM leukemia = system: CCRF-CEM leukemia
COLO 205 colon = system: COLO 205 colon
DU-145 prostate = system: DU-145 prostate
EKVX NSCLC = system: EKVX NSCLC
HCC-2998 colon = system: HCC-2998 colon
HCT-116 colon = system: HCT-116 colon
HCT-15 colon = system: HCT-15 colon
HL-60(TB) leukemia = system: HL-60(TB) leukemia
HOP-62 NSCLC = system: HOP-62 NSCLC
HOP-92 NSCLC = system: HOP-92 NSCLC
HS 578T breast = system: HS 578T breast
HT29 colon = system: HT29 colon
IGROV1 ovarian = system: IGROV1 ovarian
K-562 leukemia = system: K-562 leukemia
KM12 colon = system: KM12 colon
LOX IMVI melanoma = system: LOX IMVI melanoma
M14 melanoma = system: M14 melanoma
MALME-3M melanoma = system: MALME-3M melanoma
MCF7 breast = system: MCF7 breast
MDA-MB-231 breast = system: MDA-MB-231 breast
MDA-MB-435 = system: MDA-MB-435
MDA-N = system: MDA-N
MOLT-4 leukemia = system: MOLT-4 leukemia
NCI-H226 lung = system: NCI-H226 lung
NCI-H23 lung = system: NCI-H23 lung
NCI-H460 lung = system: NCI-H460 lung
NCI-H522 lung = system: NCI-H522 lung
NCI/ADR-RES ovarian = system: NCI/ADR-RES ovarian
OVCAR-3 ovarian = system: OVCAR-3 ovarian
OVCAR-4 ovarian = system: OVCAR-4 ovarian
OVCAR-5 ovarian = system: OVCAR-5 ovarian
OVCAR-8 ovarian = system: OVCAR-8 ovarian
PC-3 prostate = system: PC-3 prostate
RXF 393 renal = system: RXF 393 renal
SF-268 CNS = system: SF-268 CNS
SF-295 CNS = system: SF-295 CNS
SF-539 CNS = system: SF-539 CNS
SK-MEL-2 melanoma = system: SK-MEL-2 melanoma
SK-MEL-28 melanoma = system: SK-MEL-28 melanoma
SK-MEL-5 melanoma = system: SK-MEL-5 melanoma
SK-OV-3 ovarian = system: SK-OV-3 ovarian
SN12C renal = system: SN12C renal
SNB-19 CNS = system: SNB-19 CNS
SW-620 colon = system: SW-620 colon
T-47D breast = system: T-47D breast
TK-10 renal = system: TK-10 renal
U251 CNS = system: U251 CNS
UACC-257 melanoma = system: UACC-257 melanoma
UACC-62 melanoma = system: UACC-62 melanoma
UO-31 renal = system: UO-31 renal

Cc1ccc(S(=O)(=O)N/N=C2\CC3C4C=CC3C2C4)cc1 (stereo not given)
TGI (786-0 renal): > 100 µM
TGI (A498 renal): > 100 µM
TGI (A549 NSCLC): > 100 µM
TGI (ACHN renal): > 100 µM
TGI (CAKI-1 renal): > 100 µM
TGI (CCRF-CEM leukemia): > 100 µM
TGI (COLO 205 colon): > 100 µM
TGI (DU-145 prostate): > 100 µM
TGI (EKVX NSCLC): > 100 µM
TGI (HCC-2998 colon): > 100 µM
TGI (HCT-116 colon): > 100 µM
TGI (HCT-15 colon): > 100 µM
TGI (HL-60(TB) leukemia): > 100 µM
TGI (HOP-62 NSCLC): > 100 µM
TGI (HOP-92 NSCLC): > 100 µM
TGI (HS 578T breast): > 100 µM
TGI (HT29 colon): > 100 µM
TGI (IGROV1 ovarian): > 100 µM
TGI (K-562 leukemia): > 100 µM
TGI (KM12 colon): > 100 µM
TGI (LOX IMVI melanoma): > 100 µM
TGI (M14 melanoma): > 100 µM
TGI (MALME-3M melanoma): > 100 µM
TGI (MCF7 breast): > 100 µM
TGI (MDA-MB-231 breast): > 100 µM
TGI (MDA-MB-435): > 100 µM
TGI (MDA-N): > 100 µM
TGI (MOLT-4 leukemia): > 100 µM
TGI (NCI-H226 lung): > 100 µM
TGI (NCI-H23 lung): > 100 µM
TGI (NCI-H460 lung): > 100 µM
TGI (NCI-H522 lung): > 100 µM
TGI (NCI/ADR-RES ovarian): > 100 µM
TGI (OVCAR-3 ovarian): > 100 µM
TGI (OVCAR-4 ovarian): > 100 µM
TGI (OVCAR-5 ovarian): > 100 µM
TGI (OVCAR-8 ovarian): > 100 µM
TGI (PC-3 prostate): > 100 µM
TGI (RXF 393 renal): > 100 µM
TGI (SF-268 CNS): > 100 µM
TGI (SF-295 CNS): > 100 µM
TGI (SF-539 CNS): > 100 µM
TGI (SK-MEL-2 melanoma): > 100 µM
TGI (SK-MEL-28 melanoma): > 100 µM
TGI (SK-MEL-5 melanoma): > 100 µM
TGI (SK-OV-3 ovarian): > 100 µM
TGI (SN12C renal): > 100 µM
TGI (SNB-19 CNS): > 100 µM
TGI (SW-620 colon): > 100 µM
TGI (T-47D breast): > 100 µM
TGI (TK-10 renal): > 100 µM
TGI (U251 CNS): > 100 µM
TGI (UACC-257 melanoma): > 100 µM
TGI (UACC-62 melanoma): > 100 µM
TGI (UO-31 renal): 40.2 µM
